Results published in ChEMBL document CHEMBL4828771, “Discovery and Development of a Potent, Selective, and Orally Bioavailable CHK1 Inhibitor Candidate: 5-((4-((3-Amino-3-methylbutyl)amino)-5-(trifluoromethyl)pyrimidin-2-yl)amino)picolinonitrile” (J Med Chem, 2021).
Activity calls are given as the source filed them. The rule behind the calls is not given here.

How the values were obtained:
[1] = molecular target: T1, Serine/threonine-protein kinase Chk1 (Homo sapiens) (UniProt O14757); test: Inhibition of CHK1 in human MV4-11 cells assessed as reduction in autophosphorylation at S296 residue incubated for 2 hrs by Western blot analysis; format: cell-based
T1 sequence (whole entry): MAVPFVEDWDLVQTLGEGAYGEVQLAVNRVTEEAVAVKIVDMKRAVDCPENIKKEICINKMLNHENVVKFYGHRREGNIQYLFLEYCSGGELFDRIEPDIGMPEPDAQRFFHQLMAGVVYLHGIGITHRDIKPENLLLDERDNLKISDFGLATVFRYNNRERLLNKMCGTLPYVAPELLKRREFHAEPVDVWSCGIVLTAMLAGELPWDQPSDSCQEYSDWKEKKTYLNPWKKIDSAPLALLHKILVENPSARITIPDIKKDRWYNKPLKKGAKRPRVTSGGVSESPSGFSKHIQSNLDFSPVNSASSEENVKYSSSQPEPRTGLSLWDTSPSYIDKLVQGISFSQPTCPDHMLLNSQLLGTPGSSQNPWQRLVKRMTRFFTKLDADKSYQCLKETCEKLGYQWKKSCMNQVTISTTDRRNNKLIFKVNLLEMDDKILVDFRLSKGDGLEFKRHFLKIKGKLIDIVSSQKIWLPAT

[2] = molecular target: T1, Serine/threonine-protein kinase Chk1 (Homo sapiens); test: Inhibition of CHK1 in human HT-29 cells assessed as […] residue at 1.1 uM incubated for 12 hrs by Western blot analysis; format: cell-based
[3] = molecular target: Calcium/calmodulin-dependent protein kinase type II subunit beta (Homo sapiens) (UniProt Q13554); test: Inhibition of wild type human CAMK2B (M1 to Q380 residues) expressed in bacterial expression system assessed as protein activity at 0.5 uM relative to control; set-up: scale not given: the % may be the effect or the level left
Sequence of Calcium/calmodulin-dependent protein kinase type II subunit beta (Homo sapiens) (Q13554 whole entry, the tested form may be a part): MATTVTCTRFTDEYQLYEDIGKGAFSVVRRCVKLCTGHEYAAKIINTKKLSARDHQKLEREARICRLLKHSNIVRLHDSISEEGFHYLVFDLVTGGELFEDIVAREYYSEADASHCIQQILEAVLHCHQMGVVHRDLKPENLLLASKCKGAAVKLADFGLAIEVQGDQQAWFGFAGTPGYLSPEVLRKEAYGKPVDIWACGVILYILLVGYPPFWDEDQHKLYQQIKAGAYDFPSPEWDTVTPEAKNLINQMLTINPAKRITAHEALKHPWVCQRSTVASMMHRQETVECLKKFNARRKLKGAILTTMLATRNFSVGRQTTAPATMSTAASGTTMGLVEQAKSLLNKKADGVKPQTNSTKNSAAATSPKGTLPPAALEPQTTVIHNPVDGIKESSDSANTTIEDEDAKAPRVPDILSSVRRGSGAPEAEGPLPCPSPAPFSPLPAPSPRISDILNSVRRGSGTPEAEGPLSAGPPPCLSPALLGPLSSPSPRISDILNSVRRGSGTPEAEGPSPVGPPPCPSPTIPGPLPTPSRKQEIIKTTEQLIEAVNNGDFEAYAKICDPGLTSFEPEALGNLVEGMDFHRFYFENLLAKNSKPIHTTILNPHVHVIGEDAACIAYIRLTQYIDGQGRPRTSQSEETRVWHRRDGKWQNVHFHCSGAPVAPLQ

[4] = test system: HT-29; test: Antitumor activity against human HT-29 cells xenografted in mouse assessed as reduction in tumor growth by measuring T/C ratio at 30 mg/kg, po cotreated with gemcitabine dosed 5 days/week for 22 days measured twice every week; format: functional; conditions: time 22 day
[5] = test system: A549; test: Antiproliferative activity against human A549 cells incubated for 72 hrs in presence of gemcitabine by CCK8 assay; format: functional, cell-based
[6] = molecular target: T2, Serine/threonine-protein kinase DCLK3 (Homo sapiens) (UniProt Q9C098); test: Inhibition of wild type human DCAMKL3 (M1 to G289 residue) expressed in bacterial expression system assessed as protein activity at 0.5 uM relative to control; set-up: scale not given: the % may be the effect or the level left
T2 sequence (whole entry): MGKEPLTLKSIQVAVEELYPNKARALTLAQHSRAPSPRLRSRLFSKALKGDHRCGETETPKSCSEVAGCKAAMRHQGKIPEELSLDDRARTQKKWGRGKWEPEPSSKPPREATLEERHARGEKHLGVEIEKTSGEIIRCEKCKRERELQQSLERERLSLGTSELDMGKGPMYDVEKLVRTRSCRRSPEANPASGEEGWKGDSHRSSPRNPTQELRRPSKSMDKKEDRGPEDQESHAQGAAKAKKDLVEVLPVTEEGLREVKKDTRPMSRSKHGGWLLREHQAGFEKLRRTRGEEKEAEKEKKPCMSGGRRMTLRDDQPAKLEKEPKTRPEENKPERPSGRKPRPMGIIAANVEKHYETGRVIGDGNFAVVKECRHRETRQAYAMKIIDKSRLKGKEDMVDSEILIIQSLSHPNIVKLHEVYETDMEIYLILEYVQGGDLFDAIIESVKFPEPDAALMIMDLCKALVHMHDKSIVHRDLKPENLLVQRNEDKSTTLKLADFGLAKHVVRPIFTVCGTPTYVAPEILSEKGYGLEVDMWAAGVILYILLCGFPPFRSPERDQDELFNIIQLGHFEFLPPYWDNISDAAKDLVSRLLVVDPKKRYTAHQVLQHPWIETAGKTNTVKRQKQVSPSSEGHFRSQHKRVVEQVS

[7] = test system: RPMI-8226; test: Antiproliferative activity against human RPMI-8226 cells incubated for 72 hrs by CCK8 assay; format: functional, cell-based
[8] = Cmax in ICR mouse at 20 mg/kg, po measured after 0.083 to 48 hrs by LC-MS/MS analysis; format: ADME, organism-based; set-up: route oral, time upper 48 hrs, time lower 0.083 hrs, dose 20 mg/kg; conditions: in vivo
[9] = test system: MV4-11; test: Antitumor activity against human MV4-11 cells xenografted in mouse assessed as inhibition of tumor growth at 30 mg/kg, po dosed for 21 days measured twice every week relative to control; format: functional; conditions: MV4-11, po, 504 h, time 21 day, read-out: TGI

Q: What does the source list for `CC(C)(N)CCNc1nc(Nc2ccc(C#N)nc2)ncc1C(F)(F)F`?
A: inhibition [1]: Dose-Dependent Effect; Activity [2]: Active; Activity [3]: 18%; T/C [4]: 11.99%; Activity [5]: Active; Activity [6]: 7%; Activity [7]: Active; Cmax [8]: 1450 ng/mL; inhibition in vivo at 30 mg/kg [9]: 94.9%
